From patent publication US20090312385A1, “CANNABINOID RECEPTOR MODULATORS FOR TREATING NON-IMMEDIATE TYPE ALLERGIC DISEASES” (Glenmark Pharmaceuticals, S.A., priority 2007, published 2009)

System: TDI-induced dermatitis in BALB/c mice
Assay: toluene-2,4-diisocyanate (TDI) induced dermatitis model, topical treatment of the ear
Format: in vivo, female BALB/c mice
Details: for inhibition of various parameters: standard reference compounds, dose not stated
Experimental: The sensitization protocol was as per W. Baumer et al., J Pharm Pharmacol., 55(8):1107-14 (2003). The abdominal region was shaved and depilated using Veet. Subsequently, the horny layers were stripped 10 times with adhesive tape. For active sensitization, 100 μl of 5% TDI was applied to the stripped skin for 3 consecutive days.
Prescreening was performed 21 days later. In brief, the sensitized mice were challenged with an application of 10 μl of 0.5% TDI on both the inner and outer surface of the left ear, the right ear served as control in each mouse. Ear thickness was measured with a cutimeter (Model7309, Mitutoyo Japan) prior to challenge and 24 hours after challenge. […] Animals were rested for 7 days after prescreening, to allow for the ear thickness to return to normal.
Five groups (A-E) were studied.
On day 28, test compounds. GRC-CPD-A (0.3, 3 and 10%) were prepared using DMSO and acetone in the ratio of 1:9 as solvents. 20 μl (10 μl on each side of the ear) of the formulation was applied to the left ear of each mouse as per the study design 6 hours prior to challenge with TDI. 20 μl of TDI was applied to both inner and outer surface of the left ear of each mouse. The right ear served as control and received an application of 10 μl of acetone on each side. 24 hours post TDI challenge ear thickness was determined and ears were collected for histology and eosinophil peroxidase (EPO) determination. Ear sections were processed for histology and stained with hematoxylin-eosin (HE) and lesions were scored as follows: 0=no cell infiltration or edema, 1-4-granulocyte infiltration/oedema depending on severity. A combined congo-red-toluidine blue staining was also carried out to identify eosinophils which were then quantified per 12 high power fields (hpf). EPO levels in ear sections were determined by standard […] assay using […] as substrate.
All data were expressed as mean±SEM. All groups were subjected to one-way ANOVA and means were compared using Dunnett's post hoc test using GraphPad prism software.

[1] = conclusion, in a dose dependent manner (0.3, 3 and 10% topical)

SMILES	EPO levels [1]	ear swelling (oedema and eosinophil infiltration) [1]	inhibition of ear swelling (topical application of 10%, 6 hours prior to TDI challenge, ear thickness 24 hours post TDI challenge, FIG. 1)	histological scores (topical application of 10%, HE-stained ear sections, lesion score 0-4, 24 hours post TDI challenge, FIG. 2)	EPO levels in the ear (topical application of 10%, eosinophil peroxidase in ear sections, 24 hours post TDI challenge, FIG. 4)	eosinophil infiltration (topical application of 10%, eosinophils per 12 hpf in ear sections, 24 hours post TDI challenge, FIG. 3)	inhibition of various parameters
CC(C)(C)NC(=O)c1nn(-c2ccc(F)cc2F)c2c1[C@H]1CC[C@@H]2C1 [GRC-CPD-A, (1R,7S)—N5-(tert-butyl)-3-(2,4-difluorophenyl)-3,4-diazatricylco[5.2.1.0^2,6]deca-2(6),4-diene-5-carboxamide]	effectively inhibits	effectively inhibits	significant (p<0.001) dose-dependent inhibition	improved	inhibited	inhibited	
C=CC[C@@H]1/C=C(\C)C[C@H](C)C[C@H](OC)[C@H]2O[C@@](O)(C(=O)C(=O)N3CCCC[C@H]3C(=O)O[C@H](/C(C)=C/[C@@H]3CC[C@@H](O)[C@H](OC)C3)[C@H](C)[C@@H](O)CC1=O)[C@H](C)C[C@@H]2OC [tacrolimus, reference compound]							significant inhibition
C[C@]12CCC(=O)C=C1CC[C@@H]1[C@@H]2[C@@H](O)C[C@@]2(C)[C@H]1CC[C@]2(O)C(=O)CO [hydrocortisone, reference compound]							significant inhibition
